Data from PMC5402304, “Oxoaporphine Metal Complexes (Co^II, Ni^II, Zn^II) with High Antitumor Activity by Inducing Mitochondria-Mediated Apoptosis and S-phase Arrest in HepG2” (Scientific Reports, 2017).

Experiments:
cleaved PARP = test: Western blot of cleaved PARP in HepG2 cells; assay type: cell-based, human; details: 24 h
Protocol: During the caspases-activated apoptotic cascades, mitochondrial apoptotic genes Apaf-1, PARP play an important role. The expressions of Apaf-1, pro-PARP and cleaved PARP in HepG2 cells treated with 3 were carried out by Western blotting. […] The expression of Apaf-1 protein was further confirmed by RT-PCR (Fig. 13C) that the up-regulation of Apaf-1 was also observed. PARP was considered to be an important indicator of cell apoptosis, and the cleaved PARP could cause cellular inactivation and prevent DNA repair.
After incubated with 1–3 (1.0 μM) for 24 h, HepG2 cells were harvested and lysed in 150 μL of lysed buffer (149 μL RIPA and 1 μL PMSF), and then placed on ice for 15 min. The total proteins were extracted by centrifuging the cell sample at 10000 rpm at 4 °C for 10 min. Then about 50 μg of purified proteins were mixed with equal volume of electrophoresis sample buffer, and the mixture was boiled for 10 min. Meanwhile the equal protein content from the control cells was prepared in the same way. The cell sample (10 μL) was loaded onto 10% SDS-PAGE gels and then transferred onto a microporous polyvinylidene difluoride (PVDF) membrane. The membrane was blocked with 5% BSA in TBST buffer for more than 2 h. […] The immunoreactive signals were detected using an enhanced chemo-luminance kit (Pierce ECL Western Blotting Substrate) following the procedures given in the user manual.

HepG2 xenograft = HepG2 xenograft nude mice model, tumor growth inhibition; assay type: in vivo, BALB/c nude mice
Protocol: The mice were randomized into control group, 3-treated groups and positive control group (n = 6). Once the tumor had grown to an average volume of about 100 mm^3, two group of nude mice were injected intraperitoneally (ip) of 3 at a high dose (6.0 mg/kg) and a low (3.0 mg/kg) dose daily for 20 days, respectively. Cisplatin was used as positive control injected at 2.0 mg/kg every two days, while control group received solvents only.
BALB/c nude mice (male, 17–20 g, 5–6 weeks old) were supplied by Guangxi Medical University Laboratory Animal Centre (Guangxi, China, approval no. SCXK 2014–0002 and SYXK 2014–0003). All of the experimental procedures were carried out according to the NIH Guidelines for the Care and Use of Laboratory Animals. Animal experiments were approved by the Animal Care and Use Committee of Guangxi Medical University. Animal were housed at IVC system (individual ventilated caging) with conditions of constant photoperiod (12 h light/12 h dark at 25−28 °C and 45−65% humidity). The xenograft tumor model was established in the same way as we reported before[30]. The maximum solubility of 3 in DMSO/saline solvent (v/v, 5/100) with administration volume 0.8 mL/20 g was used as the high dose (6.0 mg/kg) group (n = 6). Meanwhile low dose group mice got 3.0 mg/kg, intraperitoneal injection every day, and the control group received corresponding solvent. The positive control group was administered with cisplatin at 2.0 mg/kg every two days by intraperitoneal injection (cisplatin dissolved in saline).
The tumor volumes and body weight were measured every 3 days, and tumor size was calculated as volume = (w^2l)/2, where w is the width and l is the length in mm of tumor[70]. On day 21, the mice were sacrificed, and the tumor tissue was dissected out and weighted. The in vivo antitumor activity is evaluated by two indicators[71][72]: the tumor relative increment rate (T/C = TRTV/CRTV × 100%) and tumor weight inhibition rate [IR = (Wc − Wt)/Wc × 100%,], where TRTV and CRTV were the RTV of treated group and control group, respectively (RTV: relative tumor volume, RTV = Vt /V0); Wt and Wc are the average tumor weight of complex-treated and vehicle controlled group, respectively.

[1] = Solution stability by HPLC; assay type: physicochemical; details: TBS; 0 and 24 h; mobile phase methanol/H2O 80/20
Protocol: The stability of 1–3 in Tris-HCl buffer solution (TBS, pH = 7.35, containing 1% DMSO) for 0, 12 and 48 h were primarily analyzed by means of UV-Vis spectroscopy, as shown in Figure S1.
The stability of 1–3 under physiological conditions ([…] buffer solution with pH value of 7.35, containing 1% DMSO), was carried out using UV-vis spectroscopy and HPLC. 1–3 were dissolved in DMSO at 1 × 10^−3 M, and then diluted by buffer solution. The UV-vis absorbance of these complexes at 0 h, 12 h and 48 h were measured, respectively. The solution stability of 3 was further confirmed by HPLC experiments. 3 in aqueous solution at 1.0 mg · mL^−1 was analyzed by HPLC at 0 h and 24 h respectively, with reversed-phase C18 column and methol/H2O (80:20) as mobile phase.

HepG2 = test: Cell apoptosis assay by flow cytometry, Annexin V-FITC/PI; assay type: cell-based, human; details: HepG2, 5.0 μM, 24 h
Protocol: The quantitative analysis of apoptotic HepG2 induced by 1–3 (1.0, 2.0 and 5.0 μM) and their corresponding metal salts (5.0 μM) after 24 h treatment, were investigated by flow cytometry and Annexin V-FITC/PI double staining. As depicted in Figs 7 and S6, 1–3 caused a significant increase in apoptotic cells comparing to the untreated cells.
Cell cycle progression and apoptosis were determined by flow cytometric analysis. (a) Cell cycle arrest assay: HepG2 cells in their logarithmic phase were plated into 50 mL plates at a final density of 5−6 × 10^6 cells/well overnight, then they were treated with various doses (0.25, 0.5 and 1.0 μM) of 1–3 for another 24 h. Cells were trypsinized, collected, and fixed in ice-cold 75% ethanol at −20 °C overnight. After centrifugation, the fixed cells were rinsed with ice-cold phosphate buffered saline (PBS), and resuspended in 0.5 mL of PBS containing 100 μg/mL RNase, 50 μg/mL propidium iodide (PI) in the dark for 5−10 min. The cell cycle distribution was analyzed by FACS Calibur flow cytometer (BD) and calculated using ModFIT LT software. (b) Apoptosis assay: 1 × 10^5 HepG2 cells were plated in 6-well plates, after incubation for 24 h with complexes 1–3 at 1.0, 2.0 and 5.0 μM, cells were collected, and Apoptosis Detection kit FITC Annexin V was used to analyze the cell apoptosis according to the manufacturer’s instructions.

caspase-9 = test: Caspase-9 activation by flow cytometry (CaspGLOW); assay type: cell-based, human; details: HepG2, 1.0 μM, 24 h; control 1.9%
Protocol: (§1) Caspase family is closely related to the cell apoptosis via the mitochondrial pathway, especially caspases-3, -8 and -9. To better understand the antitumor mechanisms, it needs to confirm whether caspase-3, -8 and -9 are activated when the tumor cells are treated with 1–3.
(§2) The measurement of caspase-3, -8 and -9’s activities was performed by CaspGLOW fluorescein active caspase-3, -8 and -9 staining kit. HepG2 cells were treated with 1 μM 1–3 for 24 h, harvested at a density of 1 × 10^6 cells/mL, and then suspended in 300 μL volume with PBS. To the suspension, 1 μL of caspase-3 inhibitor (FITC-DEVD-FMK), caspase-8 inhibitor (FITC-IETD-FMK) or caspase-9 inhibitor (FITC-LEHD-FMK) was consequently added and incubated for 1 h at 37 °C in 5% CO2 incubator. The cells were then examined by a FACSAria II flow cytometer equipped with a 488 nm argon laser. The results were represented as the percent change on the activity compared with the control.

caspase-8 = test: Caspase-8 activation by flow cytometry (CaspGLOW); assay type: cell-based, human; details: HepG2, 1.0 μM, 24 h; control 1.8%
Protocol: as §1, §2

[Zn(OD)2(H2O)2] (ClO4)2 [Complex 3]
increment of cleaved PARP (cleaved PARP): approximately 70 fold
IR (tumor weight inhibition rate) (HepG2 xenograft; 3.0 mg/kg ip daily for 20 days): 26.4%
T/C (tumor relative increment rate) (HepG2 xenograft; 3.0 mg/kg ip daily for 20 days): 75.49%
IR (tumor weight inhibition rate) (HepG2 xenograft; 6.0 mg/kg ip daily for 20 days): 32.8%
T/C (tumor relative increment rate) (HepG2 xenograft; 6.0 mg/kg ip daily for 20 days): 55.57%
stability in solution (HPLC chromatograms) [1]: no obvious changes of HPLC chromatograms
population of apoptotic cells (HepG2): 25.3%
proportion of activated caspase-9 (caspase-9): 32.6%
proportion of activated caspase-8 (caspase-8): 41.5%
